In patent US12479831B2, “Substituted N(-methyl-D3)pyridazine-3-carboxamide or M-(methyl-D3)-nicotinamide compounds as IL-12, IL-23 and/or IFNα modulators” (BRISTOL-MYERS SQUIBB COMPANY, priority 2020, dated 2025):

test system: IFNα-Induced STAT Phosphorylation in Human Whole Blood; experiment: IFNα-Induced STAT Phosphorylation in Human Whole Blood; format: cell-based; conditions: 1 h incubation with compound, 1000 U/mL recombinant human IFNα A/D for 15 min, pSTAT5 (pY694) median fluorescence intensity in CD3 positive population, read-out: hWB IC50
Experimental: IFNα-Induced STAT Phosphorylation in Human Whole Blood
After an hour long incubation with compound, human whole blood (drawn with either EDTA or ACD-A as anti-coagulant) was stimulated with 1000 U/mL recombinant human IFNα A/D (R&D Systems 11200-2) for 15 min. The stimulation was stopped by adding Fix/Lyse buffer (BD 558049). Cells were stained with a CD3 FITC antibody (BD 555916), washed, and permeabilized on ice using Perm III buffer (BD 558050). […] The amount of pSTAT5 expression was quantitated by median fluorescence intensity after gating on the CD3 positive population.
IFNα-Induced STAT Phosphorylation in Human Whole Blood Inhibition Data

Structure (SMILES)	IC50
[2H]C([2H])([2H])NC(=O)c1nnc(NC(=O)C2CC2)cc1Nc1cccc(-c2cnc(C(=O)N3CC[C@@H](F)C3)cn2)c1OC [Example 37, (R)-6-(cyclopropanecarboxamido)-4-((3-(5-(3-fluoropyrrolidine-1-carbonyl)pyrazin-2-yl)-2-methoxyphenyl)amino)-N-(methyl-d3)pyridazine-3-carboxamide]	97 nM
[2H]C([2H])([2H])NC(=O)c1nnc(NC(=O)C2CC2)cc1Nc1cccc(-c2ncc(C(O)(CF)CF)cn2)c1OC [Example 29, 6-(cyclopropanecarboxamido)-4-((3-(5-(1,3-difluoro-2-hydroxypropan-2-yl)pyrimidin-2-yl)-2-methoxyphenyl)amino)-N-(methyl-d3)pyridazine-3-carboxamide]	39 nM
[2H]C([2H])([2H])NC(=O)c1nnc(NC(=O)C2CC2)cc1Nc1cc(F)cc(-c2ncc(C(=O)N(C)CC)cn2)c1OC [Example 54, 6-(cyclopropanecarboxamido)-4-((3-(5-(ethyl(methyl)carbamoyl)pyrimidin-2-yl)-5-fluoro-2-methoxyphenyl)amino)-N-(methyl-d3)pyridazine-3-carboxamide]	80 nM
[2H]C([2H])([2H])NC(=O)c1nnc(NC(=O)C2CC2)cc1Nc1cccc(-c2ncc(C(=O)N(C)CC)cn2)c1OC [Example 50, 6-(Cyclopropanecarboxamido)-4-((3-(5-(ethyl(methyl)carbamoyl)pyrimidin-2-yl)-2-methoxyphenyl)amino)-N-(methyl-d3)pyridazine-3-carboxamide]	41 nM
[2H]C([2H])([2H])NC(=O)c1nnc(Nc2cnn(CC)n2)cc1Nc1cccc(-c2ncc(F)cn2)c1OC [Example 87, 6-((2-ethyl-2H-1,2,3-triazol-4-yl)amino)-4-((3-(5-fluoropyrimidin-2-yl)-2-methoxyphenyl)amino)-N-(methyl-d3)pyridazine-3-carboxamide]	343 nM
[2H]C([2H])([2H])NC(=O)c1nnc(NC(=O)C2CC2)cc1Nc1cccc(-c2ccc(C(C)(O)CC)nn2)c1OC (centres unmarked) [Example 23, 6-(cyclopropanecarboxamido)-4-((3-(6-(2-hydroxybutan-2-yl)pyridazin-3-yl)-2-methoxyphenyl)amino)-N-(methyl-d3)pyridazine-3-carboxamide]	32 nM
[2H]C([2H])([2H])NC(=O)c1nnc(Nc2ccc(C)nn2)cc1Nc1cccc(-c2ncc(F)cn2)c1OC [Example 94, 4-((3-(5-fluoropyrimidin-2-yl)-2-methoxyphenyl)amino)-N-(methyl-d3)-6-((6-methylpyridazin-3-yl)amino)pyridazine-3-carboxamide]	38 nM
[2H]C([2H])([2H])NC(=O)c1nnc(NC(=O)C2CC2)cc1Nc1cccc(-c2cnc(N(C)C(C)=O)cn2)c1OC [Example 56, 6-(Cyclopropanecarboxamido)-4-((2-methoxy-3-(5-(N-methylacetamido)pyrazin-2-yl)phenyl)amino)-N-(methyl-d3)pyridazine-3-carboxamide]	117 nM
[2H]C([2H])([2H])NC(=O)c1nnc(Nc2cc(=O)n(C)cn2)cc1Nc1cccc(-c2ncc(F)cn2)c1OC [Example 106, 4-((3-(5-fluoropyrimidin-2-yl)-2-methoxyphenyl)amino)-N-(methyl-d3)-6-((1-methyl-6-oxo-1,6-dihydropyrimidin-4-yl)amino)pyridazine-3-carboxamide]	151 nM
[2H]C([2H])([2H])NC(=O)c1cnc(Nc2cnc(C#N)cn2)cc1Nc1cccc(-c2ncccn2)c1OC [Example 72, 6-((5-cyanopyrazin-2-yl)amino)-4-((2-methoxy-3-(pyrimidin-2-yl)phenyl)amino)-N-(methyl-d3)nicotinamide]	168 nM
[2H]C([2H])([2H])NC(=O)c1nnc(Nc2cn(CC)nn2)cc1Nc1cccc(-c2ncccn2)c1OC [Example 88, 6-((1-ethyl-1H-1,2,3-triazol-4-yl)amino)-4-((2-methoxy-3-(pyrimidin-2-yl)phenyl)amino)-N-(methyl-d3)pyridazine-3-carboxamide]	145 nM
[2H]C([2H])([2H])NC(=O)c1cnc(Nc2cc(C#N)n(C)n2)cc1Nc1cccc(-c2ncccn2)c1OC [Example 61, 6-((5-Cyano-1-methyl-1H-pyrazol-3-yl)amino)-4-((2-methoxy-3-(pyrimidin-2-yl)phenyl)amino)-N-(methyl-d3)nicotinamide]	225 nM
[2H]C([2H])([2H])NC(=O)c1nnc(Nc2cc3ccccc3nn2)cc1Nc1cccc(-c2ncc(F)cn2)c1OC [Example 100, 6-(cinnolin-3-ylamino)-4-((3-(5-fluoropyrimidin-2-yl)-2-methoxyphenyl)amino)-N-(methyl-d3)pyridazine-3-carboxamide]	165 nM
[2H]C([2H])([2H])NC(=O)c1cnc(NC(=O)C2CC2)cc1Nc1cccc(-c2ncc(F)cc2C#N)c1OC [Example 115]	682 nM
[2H]C([2H])([2H])NC(=O)c1cnc(Nc2cc(C#N)n(C)n2)cc1Nc1cccc(-c2ncc(F)cn2)c1OC [Example 62, 6-((5-cyano-1-methyl-1H-pyrazol-3-yl)amino)-4-((3-(5-fluoropyrimidin-2-yl)-2-methoxyphenyl)amino)-N-(methyl-d3)nicotinamide]	109 nM
[2H]C([2H])([2H])NC(=O)c1nnc(NC(=O)C2CC2)cc1Nc1cc(F)cc(-c2ncc(C3(O)CCC3)cn2)c1OC [Example 28, 6-(cyclopropanecarboxamido)-4-((5-fluoro-3-(5-(1-hydroxycyclobutyl)pyrimidin-2-yl)-2-methoxyphenyl)amino)-N-(methyl-d3)pyridazine-3-carboxamide]	170 nM
[2H]C([2H])([2H])NC(=O)c1cnc(Nc2ccn(C)n2)cc1Nc1cccc(-c2ncc(F)cn2)c1OC [Example 65, 4-((3-(5-fluoropyrimidin-2-yl)-2-methoxyphenyl)amino)-N-(methyl-d3)-6-((1-methyl-1H-pyrazol-3-yl)amino)nicotinamide]	86 nM
[2H]C([2H])([2H])NC(=O)c1cnc(Nc2ccn(C3CC3)n2)cc1Nc1cccc(-c2ncc(F)cn2)c1OC [Example 68, 6-((1-cyclopropyl-1H-pyrazol-3-yl)amino)-4-((3-(5-fluoropyrimidin-2-yl)-2-methoxyphenyl)amino)-N-(methyl-d3)nicotinamide]	134 nM
[2H]C([2H])([2H])NC(=O)c1nnc(NC(=O)C2CC2)cc1Nc1cccc(-c2ncc(S(C)(=O)=O)cn2)c1OC [Example 111]	216 nM
[2H]C([2H])([2H])NC(=O)c1nnc(NC(=O)C2CC2)cc1Nc1cccc(-c2ncc(F)cc2C#N)c1OC [Example 114]	242 nM
[2H]C([2H])([2H])NC(=O)c1cnc(NC(=O)C2CC2)cc1Nc1cccc(-c2ncc(N3CCOCC3)cn2)c1OC [Example 16, 6-(cyclopropanecarboxamido)-4-((2-methoxy-3-(5-morpholinopyrimidin-2-yl)phenyl)amino)-N-(methyl-d3)nicotinamide]	54 nM
[2H]C([2H])([2H])NC(=O)c1nnc(NC(=O)C2CC2)cc1Nc1cccc(-c2ncc(N3CCOCC3=O)cn2)c1OC [Example 117]	111 nM
[2H]C([2H])([2H])NC(=O)c1nnc(NC(=O)C2CC2)cc1Nc1cccc(-c2ccc(=O)n(C)n2)c1OC [Example 9, 6-(cyclopropanecarboxamido)-4-((2-methoxy-3-(1-methyl-6-oxo-1,6-dihydropyridazin-3-yl)phenyl)amino)-N-(methyl-d3)pyridazine-3-carboxamide]	214 nM
